In patent US20260042764A1, “COMPOSITIONS AND METHODS FOR INHIBITION OF KRAS” (TheRas, Inc., priority 2022, published 2026):

Columns and labels:
[1] = biological target: T1, Avi-KRAS WT (1-169) GppNHp/RAF1 RBD-3xFLAG (52-151) (Homo sapiens, UniProt P01116); experiment: Raf1-KRAS WT-GppNHP disruption HTRF assay (Biological Example 1); type: binding
T1 construct: Avi-KRAS WT (1-169)
Procedure, shortened: (§1)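 Measured with a KRAS/RAF1 HTRF assay at pH 7.5 in 10% DMSO, with two 1 h room-temperature incubations with shaking.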

[2] = biological target: T2, Avi-KRAS G12D (1-169) GppNHp/RAF1 RBD-3xFLAG (52-151) (Homo sapiens, UniProt P01116, G12D); experiment: Raf1-KRAS G12D-GppNHP disruption HTRF assay (Biological Example 1); type: binding
T2 construct: Avi-KRAS G12D (1-169)
Procedure, shortened: as §1

[3] = biological target: T3, Avi-KRAS G12V (1-169) GppNHp/RAF1 RBD-3xFLAG (52-151) (Homo sapiens, UniProt P01116, G12V); experiment: Raf1-KRAS G12V-GppNHP disruption HTRF assay (Biological Example 1); type: binding
T3 construct: Avi-KRAS G12V (1-169)
Procedure, shortened: as §1

[4] = biological target: T4, Avi-KRAS G12R (1-169) GppNHp/RAF1 RBD-3xFLAG (52-151) (Homo sapiens, UniProt P01116, G12R); experiment: Raf1-KRAS G12R-GppNHP disruption HTRF assay (Biological Example 1); type: binding
T4 construct: Avi-KRAS G12R (1-169)
Procedure, shortened: as §1

[5] = system: GP2d cells (KRAS G12D); experiment: Cell-based pERK HTRF assay in GP2d cell (Biological Example 2); conditions: GP2d (KRAS G12D) cells, pERK HTRF
Procedure, shortened: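 GP2d (KRAS G12D) cells were plated in DMEM/10% FBS and treated the next day for 60 min with compounds. Dosing used 9-point half-log series starting at 1 μM or 100 nM in 0.25% DMSO. Lysates were read by HTRF pERK (d2/Eu cryptate antibodies) after 4–24 h at room temperature, with excitation at 320 nm and emission at 615 nm.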

[6] = system: SW620 cells (KRAS G12V); experiment: Cell-based pERK HTRF assay in SW620 cell (Biological Example 4); conditions: pERK HTRF
Procedure, shortened: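 SW620 cells were treated for 4 h with compound in a 9-point half-log series from 1 μM top (0.25% DMSO), then lysed. Phospho-ERK was detected by HTRF with d2 and Eu cryptate antibodies after 4–24 h at room temperature, read at 615 nm emission.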

[7] = Homo sapiens, SW-620, SW620 (KRAS G12V) cells
[8] = KRAS WT, GppNHp-loaded, class symbols
[9] = KRAS G12D, GppNHp-loaded, class symbols
[10] = KRAS G12V, GppNHp-loaded, class symbols
[11] = KRAS G12R, GppNHp-loaded, class symbols
[12] = Homo sapiens, SW-620, SW620 (KRAS G12V) cells, class symbols

T2 sequence (P01116 1-169 isoform P01116-2 G12D): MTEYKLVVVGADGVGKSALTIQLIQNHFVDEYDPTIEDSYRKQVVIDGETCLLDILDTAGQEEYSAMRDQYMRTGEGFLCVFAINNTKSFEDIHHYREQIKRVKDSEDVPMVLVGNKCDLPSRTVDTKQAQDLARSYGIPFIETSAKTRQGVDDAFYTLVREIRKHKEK
T3 sequence (P01116 1-169 isoform P01116-2 G12V): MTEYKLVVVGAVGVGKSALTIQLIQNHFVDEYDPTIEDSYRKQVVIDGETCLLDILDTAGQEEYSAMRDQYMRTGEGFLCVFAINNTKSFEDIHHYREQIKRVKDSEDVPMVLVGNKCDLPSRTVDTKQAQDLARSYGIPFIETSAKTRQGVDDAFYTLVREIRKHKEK
T1 sequence (P01116 1-169 isoform P01116-2): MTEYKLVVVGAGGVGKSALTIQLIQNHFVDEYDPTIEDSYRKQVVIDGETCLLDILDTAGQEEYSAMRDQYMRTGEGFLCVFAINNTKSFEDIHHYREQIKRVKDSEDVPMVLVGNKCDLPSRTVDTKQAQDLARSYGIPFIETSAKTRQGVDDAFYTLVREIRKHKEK
T4 sequence (P01116 1-169 isoform P01116-2 G12R): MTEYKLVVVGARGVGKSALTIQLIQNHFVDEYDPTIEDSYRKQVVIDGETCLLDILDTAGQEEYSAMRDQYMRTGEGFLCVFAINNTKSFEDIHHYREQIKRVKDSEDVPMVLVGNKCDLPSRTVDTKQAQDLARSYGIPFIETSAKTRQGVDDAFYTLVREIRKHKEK

Row | IC50 ([1]; KRAS WT-GppNHp/RAF1 RBD HTRF) [nM] | IC50 ([2]; KRAS G12D-GppNHp/RAF1 RBD HTRF) [nM] | IC50 ([3]; KRAS G12V-GppNHp/RAF1 RBD HTRF) [nM] | IC50 ([4]; KRAS G12R-GppNHp/RAF1 RBD HTRF) [nM] | IC50 ([5]; GP2d) [nM] | IC50 [6, 7] [nM] | IC50 [1, 8] [nM] | IC50 [2, 9] [nM] | IC50 [3, 10] [nM] | IC50 [4, 11] [nM] | IC50 ([5]; GP2d, class symbols) [nM] | IC50 [6, 12] [nM] | IC50 ([5]; class symbols) [nM] | IC50 ([6]; SW620 (KRAS G12V) cells, class symbols) [nM] | Compound
1 | 100 to 1000 | 100 to 1000 | 1000 to 10000 | 1000 to 10000 | < 100 | < 100 |  |  |  |  |  |  |  |  | N#Cc1c(N)sc2c(F)ccc(-c3c(C(F)(F)F)cc4c(N5CCCN6C(=O)CC[C@H]6C5)nc(OC[C@@]56CCCN5C[C@H](F)C6)nc4c3F)c12 [Compound 487]
2 | 100 to 1000 | 100 to 1000 | 100 to 1000 | 100 to 1000 | < 100 | < 100 |  |  |  |  |  |  |  |  | CN(c1nc(OC[C@@]23CCCN2C[C@H](F)C3)nc2c(F)c(-c3ccc(F)c4sc(N)c(C#N)c34)c(C(F)(F)F)cc12)[C@@H]1C[C@H]2COC(=O)N2C1 [Compound 476]
3 |  |  |  |  |  |  | < 100 | < 100 | < 100 | < 100 | < 100 | < 100 |  |  | CCN(c1nc(OC[C@@]23CCCN2C[C@H](F)C3)nc2c(F)c(-c3ccc(F)c4sc(N)c(C#N)c34)c(C(F)(F)F)cc12)[C@H]1CCN(C(=O)[C@H]2C[C@H]2F)C1 (atropisomer, axis not shown) [Compound 750]
4 | 100 to 1000 | 100 to 1000 | 100 to 1000 | 100 to 1000 | < 100 | < 100 |  |  |  |  |  |  |  |  | N#Cc1c(N)sc2c(F)ccc(-c3c(C(F)(F)F)cc4c(N5CCO[C@@H]6C[C@@H]65)nc(OC[C@@]56CCCN5C[C@H](F)C6)nc4c3F)c12 [Compound 411]
5 |  |  |  |  |  |  | < 100 | < 100 | < 100 | < 100 | < 100 | < 100 |  |  | CCN(c1nc(OC[C@@]23CCCN2C[C@H](F)C3)nc2c(F)c(-c3ccc(F)c4sc(N)c(C#N)c34)c(C(F)(F)F)cc12)[C@H]1CCN(C(=O)c2cocn2)C1 (atropisomer, axis not shown) [Compound 719]
6 | 100 to 1000 | 100 to 1000 | 1000 to 10000 | 1000 to 10000 | < 100 | < 100 |  |  |  |  |  |  |  |  | C[C@H]1[C@H](N(C)c2nc(OC[C@@]34CCCN3C[C@H](F)C4)nc3c(F)c(-c4ccc(F)c5sc(N)c(C#N)c45)c(C(F)(F)F)cc23)CCN1C(=O)C1CC1 [Compound 301]
7 |  |  |  |  |  |  | 1000 to 10000 | 1000 to 10000 | 1000 to 10000 | 1000 to 10000 | < 100 | 100 to 1000 |  |  | CCN(c1nc(OC[C@H]2C[C@@H](OC)CN2C)nc2c(F)c(-c3ccc(F)c4sc(N)c(C#N)c34)c(C(F)(F)F)cc12)[C@H]1CCN(C(=O)C(C)C)C1 [Compound 592]
8 | < 100 | < 100 | < 100 | < 100 | < 100 | < 100 |  |  |  |  |  |  |  |  | CCN(c1nc(OC[C@@]23CCCN2C[C@H](F)C3)nc2c(F)c(-c3ccc(F)c4sc(N)c(C#N)c34)c(C(F)(F)F)cc12)[C@H]1CCN(C(=O)CCC#N)C1 (atropisomer, axis not shown) [Compound 555]
9 | 100 to 1000 | 100 to 1000 | 1000 to 10000 | 100 to 1000 | < 100 | < 100 |  |  |  |  |  |  |  |  | CN(c1nc(OC[C@@]23CCCN2C[C@H](F)C3)nc2c(F)c(-c3ccc(F)c4sc(N)c(C#N)c34)c(C(F)(F)F)cc12)C12CC(CO)(C1)C2 [Compound 351]
10 | 1000 to 10000 | 1000 to 10000 | > 10000 | > 10000 | 100 to 1000 | 100 to 1000 |  |  |  |  |  |  |  |  | CC(C)C(=O)N1CC[C@@](C)(N(C)c2nc(OC[C@@]34CCCN3C[C@H](F)C4)nc3c(F)c(-c4ccc(F)c5sc(N)c(C#N)c45)c(C(F)(F)F)cc23)[C@H]1C [Compound 345]
11 |  |  |  |  |  |  | < 100 | < 100 | < 100 | < 100 | < 100 | < 100 |  |  | CCN(c1nc(OC[C@@]23CCCN2C[C@H](F)C3)nc2c(F)c(-c3ccc(F)c4sc(N)c(C#N)c34)c(C(F)(F)F)cc12)[C@H]1CCN(C(=O)[C@@H](C)OC)C1 (atropisomer, axis not shown) [Compound 570]
12 | 1000 to 10000 | 1000 to 10000 | 1000 to 10000 | 1000 to 10000 | < 100 | 100 to 1000 |  |  |  |  |  |  |  |  | CCN(c1nc(OC[C@@]23CCCN2C[C@H](F)C3)nc2c(F)c(-c3ccc(F)c4sc(N)c(C#N)c34)c(C(F)(F)F)cc12)[C@H]1CC(=O)N(C(C)C)C1 [Compound 528]
13 |  |  |  |  |  |  | < 100 | < 100 | 100 to 1000 | < 100 | < 100 | < 100 |  |  | CCN(c1nc(OC[C@@]23CCCN2C[C@H](F)C3)nc2c(F)c(-c3ccc(F)c4sc(N)c(C#N)c34)c(C(F)(F)F)cc12)[C@H]1C[C@H](C)N(C(=O)[C@H](C)OC)C1 (atropisomer, axis not shown) [Compound 739]
14 |  |  |  |  |  |  | 100 to 1000 | 100 to 1000 | 100 to 1000 | 100 to 1000 | < 100 | < 100 |  |  | CCN(c1nc(OC[C@@]23CCCN2C[C@H](F)C3)nc2c(F)c(-c3ccc(F)c4sc(N)c(C#N)c34)c(C(F)(F)F)cc12)[C@H]1C[C@@H](C)N(C(=O)N2CC(F)C2)C1 (atropisomer, axis not shown) [Compound 782]
15 |  |  |  |  |  |  | 100 to 1000 | 100 to 1000 | 100 to 1000 | 100 to 1000 | < 100 | < 100 |  |  | CN(Cc1cccnc1)c1nc(OC[C@@]23CCCN2C[C@H](F)C3)nc2c(F)c(-c3ccc(F)c4sc(N)c(C#N)c34)c(C(F)(F)F)cc12 (atropisomer, axis not shown) [Compound 698]
16 |  |  |  |  |  |  | > 10000 | 1000 to 10000 | 1000 to 10000 | 1000 to 10000 |  |  | < 100 | < 100 | CC1c2cc(C(=O)N(C)C)nn2CCN1c1nc(OCC23CCCN2CC(F)C3)nc2c(F)c(-c3ccc(F)c4sc(N)c(C#N)c34)c(C(F)(F)F)cc12 (stereo not drawn) [Compound 701]
17 |  |  |  |  |  |  | < 100 | < 100 | < 100 | < 100 | < 100 | < 100 |  |  | CCN(c1nc(OC[C@@]23CCCN2C[C@H](F)C3)nc2c(F)c(-c3ccc(F)c4sc(N)c(C#N)c34)c(C(F)(F)F)cc12)[C@H]1CCN(C(=O)[C@@H]2C[C@@H]2F)C1 (atropisomer, axis not shown) [Compound 691]
18 |  |  |  |  |  |  | 100 to 1000 | 100 to 1000 | 100 to 1000 | 100 to 1000 | < 100 | 100 to 1000 |  |  | C=C(C)C(=O)N1CC[C@@H](N(C)c2nc(OC[C@@]34CCCN3C[C@H](F)C4)nc3c(F)c(-c4ccc(F)c5sc(N)c(C#N)c45)c(C(F)(F)F)cc23)[C@H]1C [Compound 671]
19 | 100 to 1000 | < 100 | < 100 | < 100 | < 100 | < 100 |  |  |  |  |  |  |  |  | CCC(=O)N1C[C@@H](N(CC)c2nc(OC[C@@]34CCCN3C[C@H](F)C4)nc3c(F)c(-c4ccc(F)c5sc(N)c(C#N)c45)c(C(F)(F)F)cc23)C[C@@H]1C [Compound 464]
20 |  |  |  |  |  |  | < 100 | < 100 | < 100 | < 100 | < 100 | < 100 |  |  | [2H]C([2H])([2H])OC(=O)N1CC[C@H](N(CC)c2nc(OC[C@@]34CCCN3C[C@H](F)C4)nc3c(F)c(-c4ccc(F)c5sc(N)c(C#N)c45)c(C(F)(F)F)cc23)C1 (atropisomer, axis not shown) [Compound 659]

Row | Compound | IC50 ([1]; KRAS WT-GppNHp/RAF1 RBD HTRF) [nM] | IC50 ([2]; KRAS G12D-GppNHp/RAF1 RBD HTRF) [nM] | IC50 ([3]; KRAS G12V-GppNHp/RAF1 RBD HTRF) [nM] | IC50 ([4]; KRAS G12R-GppNHp/RAF1 RBD HTRF) [nM] | IC50 ([5]; GP2d) [nM] | IC50 [6, 7] [nM] | IC50 [1, 8] [nM] | IC50 [2, 9] [nM] | IC50 [3, 10] [nM] | IC50 [4, 11] [nM] | IC50 ([5]; GP2d, class symbols) [nM] | IC50 [6, 12] [nM] | IC50 ([5]; class symbols) [nM] | IC50 ([6]; SW620 (KRAS G12V) cells, class symbols) [nM]
21 | N#Cc1c(N)sc2c(F)ccc(-c3c(C(F)(F)F)cc4c(N5CC6CCC(C5)N6C(=O)C5CC5)nc(OC[C@@]56CCCN5C[C@H](F)C6)nc4c3F)c12 [Compound 439] | 1000 to 10000 | 100 to 1000 | 1000 to 10000 | 1000 to 10000 | < 100 | < 100 |  |  |  |  |  |  |  | 
22 | N#Cc1c(N)sc2c(F)ccc(-c3c(C(F)(F)F)cc4c(N5CC6CC(C5)O6)nc(OC[C@@]56CCCN5C[C@]5(CC5(F)F)C6)nc4c3F)c12 [Compound 365] | 100 to 1000 | 100 to 1000 | 100 to 1000 | 100 to 1000 | < 100 | < 100 |  |  |  |  |  |  |  | 
